ChEMBL document CHEMBL5108047 (J Med Chem, 2022)

Legend:
[1] = Half-life in CD-1 mouse at 2.5 mg/kg, po or 2.5 mg/kg, iv measured upto 24 hrs by reverse phase LCMS analysis; format: ADME, organism-based; conditions: in vivo
DNA polymerase theta [2] = molecular target: T1, DNA polymerase theta (Homo sapiens, UniProt O75417); test: Inhibition of human DNA polymerase theta pol domain (1819 to 2590 residues) expressed in Escherichia coli BL21 (DE3) cells preincubated for 15 mins followed by DNA and dNTP addition and measured after 120 mins by Picogreen dye fluorescence intensity analysis
DNA polymerase theta [3] = molecular target: T1, DNA polymerase theta; test: Inhibition of DNA polymerase theta in LIG4 knock out HEK293T cells assessed as decrease in MMEJ-mediated DNA repair preincubated for 1 day followed by lentivirus solution addition for 24 hrs prior to media replacement with compound and measured after 96 hrs by flow cytometry based traffic-light reporter assay; format: cell-based
HCT-116 [4] = test: Antiproliferative activity against BRCA2 knock out human HCT-116 cells assessed as inhibition of cell growth incubated for 12 to 14 days with media replacement for every 3 or 4 days; format: functional, cell-based
[5] = Toxicity in CD-1 mouse xenografted with BRCA2 knock out human HCT-116 cells assessed as drug tolerance at 80 mg/kg, po administered twice a day for 21 days; format: organism-based; conditions: in vivo, 504 h, time 21 day
HCT-116 [6] = test: Antiproliferative activity against BRCA2 knock in human HCT-116 cells assessed as inhibition of cell growth incubated for 7 days with media replacement for every 3 or 4 days; format: functional, cell-based
[7] = AUC in CD-1 nude mouse at 80 mg/kg, po administered twice daily and measured on day 1 by HPLC-MS analysis; format: ADME, organism-based; parameters: dose 80 mg/kg, time 1 day, route po; conditions: in vivo
[8] = Toxicity in CD-1 mouse xenografted with BRCA2 knock out human HCT-116 cells assessed as body weight loss at 80 mg/kg, po administered twice a day for 21 days; format: organism-based; conditions: in vivo, 504 h, time 21 day
DNA polymerase theta [9] = molecular target: T1, DNA polymerase theta; test: Inhibition of N-terminal His8-tagged/C-terminal FLAG-tagged full length human DNA polymerase theta ( 1 to 2590 residues) polymerase activity expressed in HEK2936E cells; format: cell-based
[10] = Oral bioavailability in CD-1 mouse at […] measured upto 24 hrs by reverse phase LCMS analysis; format: ADME, organism-based; conditions: in vivo
[11] = Toxicity in CD-1 mouse xenografted with BRCA2 knock in human HCT-116 cells assessed as body weight loss at 80 mg/kg, po administered twice a day for 21 days; format: organism-based; conditions: in vivo, 504 h, time 21 day

T1 sequence (O75417 whole entry, the tested form may be a part): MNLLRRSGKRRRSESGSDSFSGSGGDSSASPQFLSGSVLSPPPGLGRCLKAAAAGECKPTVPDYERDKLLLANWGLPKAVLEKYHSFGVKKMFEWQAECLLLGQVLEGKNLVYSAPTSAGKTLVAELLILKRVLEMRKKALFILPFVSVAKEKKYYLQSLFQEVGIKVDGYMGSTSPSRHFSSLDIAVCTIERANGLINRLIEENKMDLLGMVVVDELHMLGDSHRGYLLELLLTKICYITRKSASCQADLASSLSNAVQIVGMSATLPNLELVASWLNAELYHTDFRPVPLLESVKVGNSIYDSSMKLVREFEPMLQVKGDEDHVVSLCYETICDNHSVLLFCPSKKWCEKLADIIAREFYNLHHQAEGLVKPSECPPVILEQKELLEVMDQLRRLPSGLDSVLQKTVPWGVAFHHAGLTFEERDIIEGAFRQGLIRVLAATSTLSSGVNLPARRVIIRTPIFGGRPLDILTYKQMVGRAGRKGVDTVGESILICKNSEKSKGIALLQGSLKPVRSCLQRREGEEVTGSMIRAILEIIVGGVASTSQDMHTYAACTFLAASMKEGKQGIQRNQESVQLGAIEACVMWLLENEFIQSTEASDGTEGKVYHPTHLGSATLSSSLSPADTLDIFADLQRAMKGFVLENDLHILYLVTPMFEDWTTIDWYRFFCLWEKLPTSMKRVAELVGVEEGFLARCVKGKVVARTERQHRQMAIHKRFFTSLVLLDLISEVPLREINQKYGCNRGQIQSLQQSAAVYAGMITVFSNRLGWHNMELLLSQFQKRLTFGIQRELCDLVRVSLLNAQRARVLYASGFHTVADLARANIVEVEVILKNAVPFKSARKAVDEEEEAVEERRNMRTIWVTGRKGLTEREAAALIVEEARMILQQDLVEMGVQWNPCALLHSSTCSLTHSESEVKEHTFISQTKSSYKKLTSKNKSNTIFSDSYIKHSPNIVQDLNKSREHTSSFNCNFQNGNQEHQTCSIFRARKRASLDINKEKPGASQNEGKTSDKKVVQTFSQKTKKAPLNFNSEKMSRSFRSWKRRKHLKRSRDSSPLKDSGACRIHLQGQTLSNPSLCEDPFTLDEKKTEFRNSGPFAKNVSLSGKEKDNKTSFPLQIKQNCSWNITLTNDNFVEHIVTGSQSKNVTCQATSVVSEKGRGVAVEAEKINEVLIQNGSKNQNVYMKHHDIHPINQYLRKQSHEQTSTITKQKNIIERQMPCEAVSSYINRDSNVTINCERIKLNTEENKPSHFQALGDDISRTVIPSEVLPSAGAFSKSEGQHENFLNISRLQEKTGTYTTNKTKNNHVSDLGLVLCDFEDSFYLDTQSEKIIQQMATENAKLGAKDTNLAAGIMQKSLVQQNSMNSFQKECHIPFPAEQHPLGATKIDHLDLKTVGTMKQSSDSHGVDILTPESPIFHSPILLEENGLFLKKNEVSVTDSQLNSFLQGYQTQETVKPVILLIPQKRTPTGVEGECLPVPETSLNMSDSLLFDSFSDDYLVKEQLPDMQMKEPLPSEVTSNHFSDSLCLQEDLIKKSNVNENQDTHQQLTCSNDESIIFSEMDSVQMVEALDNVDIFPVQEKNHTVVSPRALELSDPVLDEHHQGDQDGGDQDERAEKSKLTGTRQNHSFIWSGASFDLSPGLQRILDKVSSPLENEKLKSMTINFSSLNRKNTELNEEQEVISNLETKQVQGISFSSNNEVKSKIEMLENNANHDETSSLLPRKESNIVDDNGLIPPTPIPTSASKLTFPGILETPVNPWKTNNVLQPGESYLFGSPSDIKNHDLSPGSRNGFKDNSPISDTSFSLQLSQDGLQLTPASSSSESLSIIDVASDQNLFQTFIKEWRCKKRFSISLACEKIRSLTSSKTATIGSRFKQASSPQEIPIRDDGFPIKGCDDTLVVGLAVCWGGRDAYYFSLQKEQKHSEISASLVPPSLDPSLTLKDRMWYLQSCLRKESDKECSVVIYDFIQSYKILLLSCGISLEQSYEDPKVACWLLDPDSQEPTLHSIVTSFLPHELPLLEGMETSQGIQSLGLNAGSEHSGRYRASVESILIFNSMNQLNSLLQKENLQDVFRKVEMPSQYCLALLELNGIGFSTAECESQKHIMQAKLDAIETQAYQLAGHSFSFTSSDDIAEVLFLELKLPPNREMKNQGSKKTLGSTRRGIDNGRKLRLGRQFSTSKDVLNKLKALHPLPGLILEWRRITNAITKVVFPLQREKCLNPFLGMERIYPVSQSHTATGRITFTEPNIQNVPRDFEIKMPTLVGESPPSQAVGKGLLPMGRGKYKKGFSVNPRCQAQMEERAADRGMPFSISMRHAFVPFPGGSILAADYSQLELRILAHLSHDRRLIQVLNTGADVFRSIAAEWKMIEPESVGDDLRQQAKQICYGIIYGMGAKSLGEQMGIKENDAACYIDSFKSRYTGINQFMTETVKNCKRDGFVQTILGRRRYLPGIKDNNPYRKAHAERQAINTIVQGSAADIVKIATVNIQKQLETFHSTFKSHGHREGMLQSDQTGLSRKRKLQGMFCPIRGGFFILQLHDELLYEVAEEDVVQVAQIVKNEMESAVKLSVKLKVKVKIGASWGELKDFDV

With `Nc1ccc(C#CCN(C(=O)Cc2ncc(C(F)(F)F)cc2C(F)(F)F)c2ccc(F)cc2)nn1` as the compound, how does the t1/2 [1] read?
The t1/2 was 24 min.

And the IC50 (DNA polymerase theta [2])?
Its IC50 is 5.8 nM.

What about the IC50 (DNA polymerase theta [3]) of the same compound?
The IC50 was 940 nM.

What about the IC50 (HCT-116 [4]) of the same compound?
The IC50 was 320 nM.

What about the Activity [5] of the same compound?
Its Activity is “Non-Toxic”.

What about the IC50 (HCT-116 [6]) of the same compound?
The IC50 was greater than 15000 nM.

What about the AUC at 24 h [7] of the same compound?
Its AUC at 24 h is 32.6 µM·h.

What about the Activity [8] of the same compound?
Its Activity is “Non-Toxic”.

And the IC50 (DNA polymerase theta [9])?
Its IC50 is 0.55 nM.

And the bioavailability [10]?
Its bioavailability is 66%.

And the Activity [11]?
Its Activity is “Non-Toxic”.
